Data as given in publication PMC3725505 (Scientific Reports, 2013).

Molecular target: Kelch domain of human Keap1 (residues 321–609) (Homo sapiens, UniProt Q14145)
Assay: Isothermal titration calorimetry
Assay type: binding
Details: ITC, pH 7; for TΔS (entropy term upon binding) / ΔG (change in Gibbs free energy upon binding) / ΔH (change in enthalpy upon binding): T = 298.15 K, 50 mM sodium phosphate, 100 mM NaCl, 1 mM DTT, Table 1 set; for Kd: Kd to Kelch, 25°C

Sequence of Kelch domain of human Keap1 (residues 321–609) (Q14145 321-609): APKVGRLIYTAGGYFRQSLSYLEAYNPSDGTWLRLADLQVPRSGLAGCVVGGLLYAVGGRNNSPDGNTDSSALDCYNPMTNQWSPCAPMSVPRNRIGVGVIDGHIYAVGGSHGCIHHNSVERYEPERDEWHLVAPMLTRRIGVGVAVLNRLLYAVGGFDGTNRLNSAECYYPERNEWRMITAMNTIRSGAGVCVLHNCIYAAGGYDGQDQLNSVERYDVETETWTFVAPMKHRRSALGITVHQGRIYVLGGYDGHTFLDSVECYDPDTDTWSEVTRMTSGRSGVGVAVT

CSCC[C@H](NC(=O)[C@H](CCC(N)=O)NC(=O)[C@H](CC(C)C)NC(=O)[C@H](CO)NC(=O)[C@H](CCC(N)=O)NC(=O)[C@H](CC(C)C)NC(=O)[C@H](CCC(=O)O)NC(=O)CNC(=O)[C@@H](NC(=O)[C@H](CO)NC(=O)[C@@H]1CCCN1C(=O)[C@H](CC(=O)O)NC(=O)[C@@H](NC(=O)[C@H](CCC(=O)O)NC(=O)[C@H](CCCCN)NC(=O)[C@H](CO)NC(=O)[C@H](CO)NC(=O)[C@H](CC(C)C)NC(C)=O)C(C)C)[C@@H](C)O)C(=O)N1CCC[C@H]1C(=O)N[C@@H](CCC(=O)O)C(N)=O [p62]
TΔS (entropy term upon binding): -10.34 kcal/mol
ΔG (change in Gibbs free energy upon binding): -8.04 ± 0.03 kcal/mol
ΔH (change in enthalpy upon binding): -18.38 ± 0.07 kcal/mol
Kd: > 1000 nM

Ac-FAQLQLDPETGEFLPIQPAQ-NH2 [NRF2 site 1 E78P]
TΔS (entropy term upon binding): -5.64 kcal/mol
ΔG (change in Gibbs free energy upon binding): -11.12 ± 0.03 kcal/mol
ΔH (change in enthalpy upon binding): -16.76 ± 0.05 kcal/mol

Ac-ANGNANEENGEQEADNEVD-NH2 [PTMA iso 2]
TΔS (entropy term upon binding): -9.69 kcal/mol
ΔG (change in Gibbs free energy upon binding): -7.60 ± 0.03 kcal/mol
ΔH (change in enthalpy upon binding): -17.29 ± 0.06 kcal/mol

Ac-SLEEPHSPETGEKVVAGEVN-NH2 [WTX]
TΔS (entropy term upon binding): -9.03 kcal/mol
ΔG (change in Gibbs free energy upon binding): -9.01 ± 0.04 kcal/mol
ΔH (change in enthalpy upon binding): -18.04 ± 0.09 kcal/mol
Kd: 100 to 200 nM

CC[C@H](C)[C@H](NC(=O)[C@@H]1CCCN1C(=O)[C@H](CC(C)C)NC(=O)[C@H](Cc1ccccc1)NC(=O)[C@H](CCC(=O)O)NC(=O)CNC(=O)[C@@H](NC(=O)[C@H](CCC(=O)O)NC(=O)[C@H](CCC(=O)O)NC(=O)[C@H](CC(=O)O)NC(=O)[C@H](CC(C)C)NC(=O)[C@H](CCC(N)=O)NC(=O)[C@H](CC(C)C)NC(=O)[C@H](CCC(N)=O)NC(=O)[C@H](C)NC(=O)[C@H](Cc1ccccc1)NC(C)=O)[C@@H](C)O)C(=O)N[C@@H](CCC(N)=O)C(=O)N1CCC[C@H]1C(=O)N[C@@H](C)C(=O)N[C@@H](CCC(N)=O)C(N)=O [NRF2 site 1]
TΔS (entropy term upon binding): -6.56 kcal/mol
ΔG (change in Gibbs free energy upon binding): -10.40 ± 0.03 kcal/mol
ΔH (change in enthalpy upon binding): -16.96 ± 0.05 kcal/mol

Ac-ANGNAENEENGEQEADNEVD-NH2 [PTMA iso 1]
TΔS (entropy term upon binding): -8.02 kcal/mol
ΔG (change in Gibbs free energy upon binding): -6.72 ± 0.05 kcal/mol
ΔH (change in enthalpy upon binding): -14.74 ± 0.12 kcal/mol

Ac-INVRKRNVESGEEELASKLD-NH2 [PGAM5]
TΔS (entropy term upon binding): -10.05 kcal/mol
ΔG (change in Gibbs free energy upon binding): -9.07 ± 0.03 kcal/mol
ΔH (change in enthalpy upon binding): -19.12 ± 0.06 kcal/mol
